SMILES strings stand for the structures.

Consider 18 molecules from patent US20260015358A1, “BICYCLIC DERIVATIVES, COMPOSITIONS AND USES THEREOF” (Danatlas Pharmaceuticals Co., Ltd., priority 2023, published 2026).

Assay [1] has as its target T1, WRN [UniPro: Q14191 (WRN_HUMAN), N500-C946] (Homo sapiens (Human), UniProt Q14191). As to the kind of experiment: WRN ATPase assay (ADP-Glo). It is filed as biochemical. The conditions noted are these: WRN enzymatic activity assay. In general terms: ADP-Glo turns the ADP formed in a reaction into a luminescent signal.
Assay [2] addresses T1, WRN [UniPro: Q14191 (WRN_HUMAN), N500-C946]. As to the kind of experiment: WRN unwinding assay (FORKF DNA, fluorescence). In kind it is biochemical. The conditions noted are these: Table 14.

T1 sequence (Q14191 500-946): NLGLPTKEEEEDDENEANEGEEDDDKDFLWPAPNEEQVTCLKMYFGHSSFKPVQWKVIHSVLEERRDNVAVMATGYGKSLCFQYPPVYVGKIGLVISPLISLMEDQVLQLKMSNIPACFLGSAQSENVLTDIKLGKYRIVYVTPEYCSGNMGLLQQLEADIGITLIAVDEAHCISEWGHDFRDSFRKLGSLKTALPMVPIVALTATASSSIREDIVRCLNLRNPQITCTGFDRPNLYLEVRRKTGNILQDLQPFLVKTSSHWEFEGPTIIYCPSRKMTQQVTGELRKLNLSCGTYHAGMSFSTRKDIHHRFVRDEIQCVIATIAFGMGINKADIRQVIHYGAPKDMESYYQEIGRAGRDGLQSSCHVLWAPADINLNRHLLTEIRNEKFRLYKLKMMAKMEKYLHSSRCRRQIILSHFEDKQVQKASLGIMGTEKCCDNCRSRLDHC

On to `CCc1c(N2CCN(C(=O)C(=O)Nc3ccno3)CC2)c(=O)n2nc(C3=CCOCC3)nc2n1CC(=O)Nc1ccc(C(F)(F)F)cc1F` [Example 341, 2-(4-(2-(3,6-Dihydro-2H-pyran-4-yl)-5-ethyl-4-(2-((2-fluoro-4-(trifluoromethyl)phenyl)amino)-2-oxoethyl)-7-oxo-4,7-dihydro-[1,2,4]triazolo[1,5-a]pyrimidin-6-yl)piperazin-1-yl)-N-(isoxazol-5-yl)-2-oxoacetamide], for which the IC50 in assay [1] and in assay [2] was below 100 nM throughout.

As for `CCc1c(N2CCN(C(=O)C(=O)Nc3nncs3)CC2)c(=O)n2nc(C3=CCOCC3)nc2n1CC(=O)Nc1ccc(C(F)(F)F)cc1F` [Example 342, 2-(4-(2-(3,6-Dihydro-2H-pyran-4-yl)-5-ethyl-4-(2-((2-fluoro-4-(trifluoromethyl)phenyl)amino)-2-oxoethyl)-7-oxo-4,7-dihydro-[1,2,4]triazolo[1,5-a]pyrimidin-6-yl)piperazin-1-yl)-2-oxo-N-(1,3,4-thiadiazol-2-yl)acetamide], the IC50 in assay [1] and in assay [2] was below 100 nM in each case.

For the molecule `CCc1c(N2CCN(C(=O)CNC(=O)c3ccccc3F)CC2)c(=O)n2nc(C3=CCOCC3)cc2n1CC(=O)Nc1ccc(C(F)(F)F)cc1Cl` [Example 343, N-(2-(4-(4-(2-((2-Chloro-4-(trifluoromethyl)phenyl)amino)-2-oxoethyl)-2-(3,6-dihydro-2H-pyran-4-yl)-5-ethyl-7-oxo-4,7-dihydropyrazolo[1,5-a]pyrimidin-6-yl)piperazin-1-yl)-2-oxoethyl)-2-fluorobenzamide], the concentration for half-maximal inhibition (IC50) in assay [1] and in assay [2] was below 100 nM each time.

With `CCc1c(N2CCN(C(=O)CNC(=O)c3ccccc3F)CC2)c(=O)n2nc(N3CCOCC3)cc2n1CC(=O)Nc1ccc(C(F)(F)F)cc1Cl` [Example 344, N-(2-(4-(4-(2-((2-chloro-4-(trifluoromethyl)phenyl)amino)-2-oxoethyl)-5-ethyl-2-morpholino-7-oxo-4,7-dihydropyrazolo[1,5-a]pyrimidin-6-yl)piperazin-1-yl)-2-oxoethyl)-2-fluorobenzamide], the IC50 in assay [1] and in assay [2] was 100 to 1000 nM throughout.

With `CCc1c(N2CCN(C(=O)C(F)N3C(=O)c4ccccc4C3=O)CC2)c(=O)n2nc(C3=CCOCC3)nc2n1CC(=O)Nc1ccc(C(F)(F)F)cc1Cl` (stereo not drawn) [Example 345, N-(2-chloro-4-(trifluoromethyl)phenyl)-2-(2-(3,6-dihydro-2H-pyran-4-yl)-6-(4-(2-(1,3-dioxoisoindolin-2-yl)-2-fluoroacetyl)piperazin-1-yl)-5-ethyl-7-oxo-[1,2,4]triazolo[1,5-a]pyrimidin-4(7H)-yl)acetamide], the IC50 in assay [1] and in assay [2] was 100 to 1000 nM each time.

`CCc1c(N2CCN(C(=O)CNC(=O)c3nc(C)cs3)CC2)c(=O)n2nc(C3=CCOCC3)nc2n1CC(=O)Nc1ccc(C(F)(F)F)cc1Cl` [Example 346, N-(2-(4-(4-(2-((2-Chloro-4-(trifluoromethyl)phenyl)amino)-2-oxoethyl)-2-(3,6-dihydro-2H-pyran-4-yl)-5-ethyl-7-oxo-4,7-dihydro-[1,2,4]triazolo[1,5-a]pyrimidin-6-yl)piperazin-1-yl)-2-oxoethyl)-4-methylthiazole-2-carboxamide]: the IC50 in assay [1] and in assay [2] was below 100 nM each time.

`CCc1c(N2CCN(C(=O)C(=O)Nc3nc(C)cs3)CC2)c(=O)n2nc(C3=CCOCC3)nc2n1CC(=O)Nc1ccc(C(F)(F)F)cc1Cl` [Example 347, 2-(4-(4-(2-((2-Chloro-4-(trifluoromethyl)phenyl)amino)-2-oxoethyl)-2-(3,6-dihydro-2H-pyran-4-yl)-5-ethyl-7-oxo-4,7-dihydro-[1,2,4]triazolo[1,5-a]pyrimidin-6-yl)piperazin-1-yl)-N-(4-methylthiazol-2-yl)-2-oxoacetamide]: the IC50 in assay [1] and in assay [2] was below 100 nM in each case.

In the case of `CCc1c(N2CCN(C(=O)C(=O)Nc3cc(C)no3)CC2)c(=O)n2nc(C3=CCOCC3)nc2n1CC(=O)Nc1ccc(C(F)(F)F)cc1Cl` [Example 348, 2-(4-(4-(2-((2-Chloro-4-(trifluoromethyl)phenyl)amino)-2-oxoethyl)-2-(3,6-dihydro-2H-pyran-4-yl)-5-ethyl-7-oxo-4,7-dihydro-[1,2,4]triazolo[1,5-a]pyrimidin-6-yl)piperazin-1-yl)-N-(3-methylisoxazol-5-yl)-2-oxoacetamide], the IC50 in assay [1] and in assay [2] was below 100 nM throughout.

`CCc1c(N2CCN(C(=O)C(=O)Nc3cncs3)CC2)c(=O)n2nc(C3=CCOCC3)nc2n1CC(=O)Nc1ccc(C(F)(F)F)cc1F` [Example 349, 2-(4-(2-(3,6-Dihydro-2H-pyran-4-yl)-5-ethyl-4-(2-((2-fluoro-4-(trifluoromethyl)phenyl)amino)-2-oxoethyl)-7-oxo-4,7-dihydro-[1,2,4]triazolo[1,5-a]pyrimidin-6-yl)piperazin-1-yl)-2-oxo-N-(thiazol-5-yl)acetamide]: the IC50 in assay [1] and in assay [2] was below 100 nM in each case.

Take `CCc1c(N2CCN(C(=O)C(=O)Nc3nc(C)cs3)CC2)c(=O)n2nc(C3=CCOCC3)nc2n1CC(=O)Nc1ccc(C(F)(F)F)cc1F` [Example 350, 2-(4-(2-(3,6-Dihydro-2H-pyran-4-yl)-5-ethyl-4-(2-((2-fluoro-4-(trifluoromethyl)phenyl)amino)-2-oxoethyl)-7-oxo-4,7-dihydro-[1,2,4]triazolo[1,5-a]pyrimidin-6-yl)piperazin-1-yl)-N-(4-methylthiazol-2-yl)-2-oxoacetamide]: the IC50 in assay [1] and in assay [2] was below 100 nM in each case.

Take `CCc1c(N2CCN(C(=O)C(=O)Nc3nnc(Cl)s3)CC2)c(=O)n2nc(C3=CCOCC3)nc2n1CC(=O)Nc1ccc(C(F)(F)F)cc1Cl` [Example 351, N-(5-Chloro-1,3,4-thiadiazol-2-yl)-2-(4-(4-(2-((2-chloro-4-(trifluoromethyl)phenyl)amino)-2-oxoethyl)-2-(3,6-dihydro-2H-pyran-4-yl)-5-ethyl-7-oxo-4,7-dihydro-[1,2,4]triazolo[1,5-a]pyrimidin-6-yl)piperazin-1-yl)-2-oxoacetamide]: the IC50 in assay [1] and in assay [2] was below 100 nM in each case.

Take `CCc1c(N2CCN(C(=O)C(=O)Nc3cc(C)on3)CC2)c(=O)n2nc(N3CCOCC3)nc2n1CC(=O)Nc1ccc(C(F)(F)F)cc1Cl` [Example 352, 2-(4-(4-(2-((2-Chloro-4-(trifluoromethyl)phenyl)amino)-2-oxoethyl)-5-ethyl-2-morpholino-7-oxo-4,7-dihydro-[1,2,4]triazolo[1,5-a]pyrimidin-6-yl)piperazin-1-yl)-N-(5-methylisoxazol-3-yl)-2-oxoacetamide]: the IC50 in assay [1] and in assay [2] was 100 to 1000 nM each time.

With `CCc1c(N2CCN(C(=O)C(=O)Nc3nc(C)co3)CC2)c(=O)n2nc(C3=CCOCC3)nc2n1CC(=O)Nc1ccc(C(F)(F)F)cc1Cl` [Example 353, 2-(4-(4-(2-((2-Chloro-4-(trifluoromethyl)phenyl)amino)-2-oxoethyl)-2-(3,6-dihydro-2H-pyran-4-yl)-5-ethyl-7-oxo-4,7-dihydro-[1,2,4]triazolo[1,5-a]pyrimidin-6-yl)piperazin-1-yl)-N-(4-methyloxazol-2-yl)-2-oxoacetamide], the IC50 in assay [1] and in assay [2] was below 100 nM each time.

Consider `CCc1c(N2CCN(C(=O)C(=O)Nc3ccno3)CC2)c(=O)n2nc(C3=CCOCC3)nc2n1CC(=O)Nc1ccc(C(F)(F)F)cc1Cl` [Example 354, 2-(4-(4-(2-((2-Chloro-4-(trifluoromethyl)phenyl)amino)-2-oxoethyl)-2-(3,6-dihydro-2H-pyran-4-yl)-5-ethyl-7-oxo-4,7-dihydro-[1,2,4]triazolo[1,5-a]pyrimidin-6-yl)piperazin-1-yl)-N-(isoxazol-5-yl)-2-oxoacetamide], for which the IC50 in assay [1] and in assay [2] was below 100 nM throughout.

`CCc1c(N2CCN(C(=O)C(=O)Nc3nc(C)co3)CC2)c(=O)n2nc(C3=CCOCC3)nc2n1CC(=O)Nc1ccc(C(F)(F)F)cc1F` [Example 355, 2-(4-(2-(3,6-Dihydro-2H-pyran-4-yl)-5-ethyl-4-(2-((2-fluoro-4-(trifluoromethyl)phenyl)amino)-2-oxoethyl)-7-oxo-4,7-dihydro-[1,2,4]triazolo[1,5-a]pyrimidin-6-yl)piperazin-1-yl)-N-(4-methyloxazol-2-yl)-2-oxoacetamide]: the IC50 in assay [1] and in assay [2] was below 100 nM in each case.

With `CCc1c(N2CCN(C(=O)C(=O)N3CCOCC3)CC2)c(=O)n2nc(C3=CCOCC3)nc2n1CC(=O)Nc1ccc(C(F)(F)F)cc1Cl` [Example 356, N-(2-Chloro-4-(trifluoromethyl)phenyl)-2-(2-(3,6-dihydro-2H-pyran-4-yl)-5-ethyl-6-(4-(2-morpholino-2-oxoacetyl)piperazin-1-yl)-7-oxo-[1,2,4]triazolo[1,5-a]pyrimidin-4(7H)-yl)acetamide], the IC50 in assay [1] and in assay [2] was above 1000 nM each time.

On to `CCc1c(N2CCN(C(=O)C(=O)NC3CCCC3)CC2)c(=O)n2nc(C3=CCOCC3)nc2n1CC(=O)Nc1ccc(C(F)(F)F)cc1Cl` [Example 357, 2-(4-(4-(2-((2-Chloro-4-(trifluoromethyl)phenyl)amino)-2-oxoethyl)-2-(3,6-dihydro-2H-pyran-4-yl)-5-ethyl-7-oxo-4,7-dihydro-[1,2,4]triazolo[1,5-a]pyrimidin-6-yl)piperazin-1-yl)-N-cyclopentyl-2-oxoacetamide], for which the IC50 in assay [1] and in assay [2] was 100 to 1000 nM in each case.

As to `CCc1c(N2CCN(C(=O)C(=O)N3CCCC3)CC2)c(=O)n2nc(C3=CCOCC3)nc2n1CC(=O)Nc1ccc(C(F)(F)F)cc1Cl` [Example 358, N-(2-Chloro-4-(trifluoromethyl)phenyl)-2-(2-(3,6-dihydro-2H-pyran-4-yl)-5-ethyl-7-oxo-6-(4-(2-oxo-2-(pyrrolidin-1-yl)acetyl)piperazin-1-yl)-[1,2,4]triazolo[1,5-a]pyrimidin-4(7H)-yl)acetamide], the IC50 in assay [1] and in assay [2] was 100 to 1000 nM each time.
